Data published in PMC6274554, “Synthetic Strategy and Anti-Tumor Activities of Macrocyclic Scaffolds Based on 4-Hydroxyproline” (Molecules, 2016).

Columns and labels:
Type in all cases: cell-based, human
[1] = system: hepatocarcinoma cell line Hep G2; assay: MTT cytotoxicity assay, Hep G2; details: Homo sapiens, HepG2, Hep G2 cells, 8000 cells/well, 24 h incubation with compound, absorbance 490 nm, read-out: IC50 (μmol/L) Hep G2
Description: (§1) A small library derived from 6a–b, 9 and 10a–c was obtained by hydrolysis of the macrocycles and condensation with amines. The anti-tumor activities for lung cancer cell line A549, breast cancer cell line MDA-MB-231 and hepatocarcinoma cell line Hep G2 of all these new compounds were screened in vitro by an MTT assay. Most of the compounds show some inhibitory activities against A549, MDA-MB-231 and Hep G2. […] In the future, further structure–activity relationship studies will be performed to determine how the substituents affected the anti-tumor activity and to design the best chemical structure in the future.
(§2) The human lung cancer cell line A549, breast cancer cell line MDA-MB-231 and hepatocarcinoma cell line Hep G2 were cultured in Dulbecco’s modified Eagle’s medium (DMEM) supplemented with antibiotics (penicillin 50 U/mL; streptomycin 50 µg/mL) and 10% FCS. The incubation was at 37 °C in a humidified atmosphere of 5% CO2 in air before experiments. Cells were first seeded at a density of 8000 cells/well in a 96-well plate for 48 hours. Solutions containing respective concentrations of compounds were added into wells and incubation continued for another 24 hours. After that, the MTT (3-(4,5-dimethylthiazol-2-yl)-2,5-diphenyltetrazolium bromide) dye stock solution (10 μL, 5 mg/mL) was added to each well. After 4 h, the supernatant was removed and DMSO (100 μL) was added to solubilize the MTT. The absorbance was measured at a wave length of 490 nm (A490nm) on an ELISA microplate reader. Results were expressed as IC50 values.

[2] = system: breast cancer cell line MDA-MB-231; assay: MTT cytotoxicity assay, MDA-MB-231; details: Homo sapiens, MDA-MB-231 cells, 8000 cells/well, 24 h incubation with compound, absorbance 490 nm, read-out: IC50 (μmol/L) MDA-MB-231
Description: as §1, §2

[3] = system: lung cancer cell line A549; assay: MTT cytotoxicity assay, A549; details: Homo sapiens, A549 cells, 8000 cells/well, 24 h incubation with compound, absorbance 490 nm, read-out: IC50 (μmol/L) A549
Description: as §1, §2

SMILES	IC50 [1]	IC50 [2]	IC50 [3]
O=C(Nc1ccccc1)[C@@H]1C[C@@H]2CN1C(=O)c1cccc(c1)OC/C=C\CO2 [Compound 32, (4Z,8R,10S)-12-Oxo-N-phenyl-2,7-dioxa-11-aza-tricyclo[11.3.1.1^8,11]octadecane-4,1(17),13,15-tetraene-10-carboxamide]	26.3 µmol/L	9.67 µmol/L	4.76 µmol/L
CC(C)CNC(=O)[C@@H]1C[C@@H]2CN1C(=O)c1cccc(c1)OC/C=C\CO2 [Compound 33, (4Z,8R,10S)-12-Oxo-N-isobutyl-2,7-dioxa-11-aza-tricyclo[11.3.1.1^8,11]octadecane-4,1(17),13,15-tetraene-10-carboxamide]	41.1 µmol/L	11.9 µmol/L	2.55 µmol/L
O=C(O)[C@@H]1C[C@@H]2CN1C(=O)c1cccc(c1)OCCCCO2 [Compound 34, (8R,10S)-12-Oxo-2,7-dioxa-11-aza-tricyclo[11.3.1.1^8,11]octadecane-1(17),13,15-triene-10-carboxylic acid]	96.2 µmol/L	96.2 µmol/L	> 100 µmol/L
NC(=O)[C@@H]1C[C@@H]2CN1C(=O)c1cccc(c1)OCCCCO2 [Compound 35, (8R,10S)-12-Oxo-2,7-dioxa-11-aza-tricyclo[11.3.1.1^8,11]octadecane-1(17),13,15-triene-10-carboxamide]	91.5 µmol/L	90.5 µmol/L	89.5 µmol/L
O=C(Nc1ccccc1)[C@@H]1C[C@@H]2CN1C(=O)c1cccc(c1)OCCCCO2 [Compound 36, (8R,10S)-12-Oxo-N-phenyl-2,7-dioxa-11-aza-tricyclo[11.3.1.1^8,11]octadecane-1(17),13,15-triene-10-carboxamide]	95.4 µmol/L	85.3 µmol/L	54.3 µmol/L
CC(C)CNC(=O)[C@@H]1C[C@@H]2CN1C(=O)c1cccc(c1)OCCCCO2 [Compound 37, (8R,10S)-12-Oxo-N-isobutyl-2,7-dioxa-11-aza-tricyclo[11.3.1.1^8,11]octadecane-1(17),13,15-triene-10-carboxamide]	73.1 µmol/L	86.3 µmol/L	77.9 µmol/L
O=C(O)[C@@H]1C[C@@H]2CN1C(=O)c1cccc(c1)OCCCCCO2 [Compound 38, (9R,11S)-13-Oxo-2,8-dioxa-12-aza-tricyclo[12.3.1.1^9,12]nonadecane-1(18),14,16-triene-11-carboxylic acid]	> 100 µmol/L	92.3 µmol/L	> 100 µmol/L
NC(=O)[C@@H]1C[C@@H]2CN1C(=O)c1cccc(c1)OCCCCCO2 [Compound 39, (9R,11S)-13-Oxo-2,8-dioxa-12-aza-tricyclo[12.3.1.1^9,12]nonadecane-1(18),14,16-triene-11-carboxamide]	> 100 µmol/L	57.3 µmol/L	63.7 µmol/L
O=C(Nc1ccccc1)[C@@H]1C[C@@H]2CN1C(=O)c1cccc(c1)OCCCCCO2 [Compound 40, (9R,11S)-13-Oxo-N-phenyl-2,8-dioxa-12-aza-tricyclo[12.3.1.1^9,12]nonadecane-1(18),14,16-triene-11-carboxamide]	68.4 µmol/L	76.4 µmol/L	88 µmol/L
CC(C)CNC(=O)[C@@H]1C[C@@H]2CN1C(=O)c1cccc(c1)OCCCCCO2 [Compound 41, (9R,11S)-13-Oxo-N-isobutyl-2,8-dioxa-12-aza-tricyclo[12.3.1.1^9,12]nonadecane-1(18),14,16-triene-11-carboxamide]	> 100 µmol/L	47.3 µmol/L	34.9 µmol/L
O=C(O)[C@@H]1C[C@@H]2CN1C(=O)c1cccc(c1)OCCCCCCO2 [Compound 42, (10R,12S)-14-Oxo-2,9-dioxa-13-aza-tricyclo[13.3.1.1^10,13]eicosane-1(19),15,17-triene-12-carboxylic acid]	87.4 µmol/L	> 100 µmol/L	> 100 µmol/L
NC(=O)[C@@H]1C[C@@H]2CN1C(=O)c1cccc(c1)OCCCCCCO2 [Compound 43, (10R,12S)-14-Oxo-2,9-dioxa-13-aza-tricyclo[13.3.1.1^10,13]eicosane-1(19),15,17-triene-12-carboxamide]	64.9 µmol/L	66 µmol/L	69.7 µmol/L
O=C(Nc1ccccc1)[C@@H]1C[C@@H]2CN1C(=O)c1cccc(c1)OCCCCCCO2 [Compound 44, (10R,12S)-14-Oxo-N-phenyl-2,9-dioxa-13-aza-tricyclo[13.3.1.1^10,13]eicosane-1(19),15,17-triene-12-carboxamide]	88.1 µmol/L	23.1 µmol/L	98.2 µmol/L
CC(C)CNC(=O)[C@@H]1C[C@@H]2CN1C(=O)c1cccc(c1)OCCCCCCO2 [Compound 45, (10R,12S)-14-oxo-N-Isobutyl-2,9-dioxa-13-aza-tricyclo[13.3.1.1^10,13]eicosane-1(19),15,17-triene-12-carboxamide]	89.6 µmol/L	88.7 µmol/L	93.6 µmol/L
